Legend:
Type in all cases: in vivo
[1] = tested on: barnyardgrass (Echinochloa crus-galli); experiment: Test B flooded paddy test; conditions: 250 g ai/ha, Flood; visual rating on scale of 0 to 100 where 0 is no effect and 100 is complete control; 13 to 15 d after treatment
Outline: (§1)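 Ratings use a 0-100 visual scale, where 100 is complete control, and compare treated plants with controls after 13 to 15 d of greenhouse growth. Compound went straight into paddy water kept 3 cm over the soil surface, applied to seedlings at the 2-leaf stage.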

[2] = tested on: rice (Oryza sativa); experiment: Test B flooded paddy test; conditions: 250 g ai/ha, Flood; visual rating on scale of 0 to 100 where 0 is no effect and 100 is complete control; 13 to 15 d after treatment
Outline: as §1

[3] = tested on: ducksalad (Heteranthera limosa); experiment: Test B flooded paddy test; conditions: 250 g ai/ha, Flood; visual rating on scale of 0 to 100 where 0 is no effect and 100 is complete control; 13 to 15 d after treatment
Outline: as §1

[4] = tested on: sedge, umbrella (small-flower umbrella sedge, Cyperus difformis); experiment: Test B flooded paddy test; conditions: 250 g ai/ha, Flood; visual rating on scale of 0 to 100 where 0 is no effect and 100 is complete control; 13 to 15 d after treatment
Outline: as §1

[5] = tested on: galium (catchweed bedstraw, Galium aparine); experiment: Test A greenhouse herbicide test, postemergence
Outline: (§2)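 Seedlings in a loam soil and sand mix received formulated compound postemergence at the one- to two-leaf stage. Greenhouse holding lasts approximately 10 d, then injury is scored visually relative to untreated plants, 0 meaning no effect and 100 complete control.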

[6] = tested on: blackgrass (Alopecurus myosuroides); experiment: Test A greenhouse herbicide test, postemergence
Outline: as §2

[7] = tested on: ryegrass, Italian (Italian ryegrass, Lolium multiflorum); experiment: Test A greenhouse herbicide test, pre- and postemergence
From the text: (§3) Seeds of plant species selected from barnyardgrass (Echinochloa crus-galli), kochia (Kochia scoparia), ragweed (common ragweed, Ambrosia elatior), ryegrass, Italian (Italian ryegrass, Lolium multiflorum), crabgrass, large (large crabgrass, Digitaria sanguinalis), foxtail, giant (giant foxtail, Setaria faberii), momingglory (Ipomoea spp.), pigweed (Amaranthus retroflexus), velvetleaf (Abutilon theophrasti), wheat (Triticum aestivum), and corn (Zea mays) were planted into a blend of loam soil and sand and treated preemergence with a directed soil spray using test chemicals formulated in a non-phytotoxic solvent mixture which included a surfactant.
(§4) At the same time, plants selected from these crop and weed species and also blackgrass (Alopecurus myosuroides), and galium (catchweed bedstraw, Galium aparine) were planted in pots containing the same blend of loam soil and sand and treated with postemergence applications of test chemicals formulated in the same manner. Plants ranged in height from 2 to 10 cm and were in the one- to two-leaf stage for the postemergence treatment. Treated plants and untreated controls were maintained in a greenhouse for approximately 10 d, after which time all treated plants were compared to untreated controls and visually evaluated for injury. Plant response ratings, summarized in Table A, are based on a 0 to 100 scale where 0 is no effect and 100 is complete control. A dash (-) response means no test result.

[8] = tested on: barnyardgrass (Echinochloa crus-galli); experiment: as above
From the text: as §3, §4

[9] = tested on: pigweed (Amaranthus retroflexus); experiment: as above
From the text: as §3, §4

[10] = tested on: foxtail, giant (giant foxtail, Setaria faberii); experiment: as above
From the text: as §3, §4

[11] = tested on: wheat (Triticum aestivum); experiment: as above; conditions: Postemergence
From the text: as §3, §4

[12] = tested on: kochia (Kochia scoparia); experiment: as above
From the text: as §3, §4

[13] = tested on: corn (Zea mays); experiment: as above; conditions: Postemergence
From the text: as §3, §4

[14] = tested on: ragweed (common ragweed, Ambrosia elatior); experiment: as above
From the text: as §3, §4

[15] = 125 g ai/ha, 0 to 100 scale where 0 is no effect and 100 is complete control
[16] = 500 g ai/ha, visual rating after approx. 10 d, 0 to 100 scale (0 no effect, 100 complete control)
[17] = Postemergence, 125 g ai/ha, 0 to 100 scale where 0 is no effect and 100 is complete control
[18] = Postemergence, 500 g ai/ha, visual rating after approx. 10 d, 0 to 100 scale (0 no effect, 100 complete control)
[19] = Preemergence, 500 g ai/ha, 0 to 100 scale where 0 is no effect and 100 is complete control
[20] = Preemergence, 125 g ai/ha, 0 to 100 scale where 0 is no effect and 100 is complete control
[21] = 125 g ai/ha, 0 to 100 scale, 0 no effect, 100 complete control
[22] = Postemergence, 125 g ai/ha, 0 to 100 scale, 0 no effect, 100 complete control
[23] = Preemergence, 125 g ai/ha, visual injury rating, 0 to 100 scale (0 no effect, 100 complete control), approx. 10 d

Structure (SMILES)	Plant response rating, Barnyardgrass [1]	Plant response rating, Rice [2]	Plant response rating, Ducksalad [3]	Plant response rating, Sedge, Umbrella [4]	Plant response rating, Galium [5, 16]	Plant response rating, Blackgrass [6, 16]	Plant response rating, Ryegrass, Italian [7, 18]	Plant response rating, Ryegrass, Italian [7, 19]	Plant response rating, Barnyardgrass [8, 18]	Plant response rating, Barnyardgrass [8, 19]	Plant response rating, Pigweed [9, 18]	Plant response rating, Pigweed [9, 19]	Plant response rating, Foxtail, Giant [10, 18]	Plant response rating, Foxtail, Giant [10, 19]	Plant response rating, Wheat [11, 16]	Plant response rating, Kochia [12, 18]	Plant response rating, Kochia [12, 19]	Plant response rating, Corn [13, 16]	Plant response rating, Ragweed [14, 18]	Plant response rating, Ragweed [14, 19]	also measured
CCOC(=O)Oc1c(C)nn(C)c(=O)c1-c1c(C(F)(F)F)ccc2ccccc12 [Compound 146]	0	0	0	0	90	70	100	80	30	50	90	100	70	50	70	100	70	30	100	80	Plant response rating, Galium [5, 15]: 80; Plant response rating, Blackgrass [6, 15]: 20; Plant response rating, Ryegrass, Italian [7, 17]: 70; Plant response rating, Barnyardgrass [8, 17]: 0; Barnyardgrass plant response rating [8, 20]: 0; Plant response rating, Pigweed [9, 17]: 90; Pigweed plant response rating [9, 20]: 100; Plant response rating, Foxtail, Giant [10, 17]: 10; Foxtail, Giant plant response rating [10, 20]: 0; Plant response rating, Wheat [11, 15]: 0; Plant response rating, Kochia [12, 17]: 70; Kochia plant response rating [12, 20]: 20; Plant response rating, Corn [13, 15]: 0; Plant response rating, Ragweed [14, 17]: 90
CCC(=O)Oc1c(C)nn(C)c(=O)c1-c1c(C(F)(F)F)ccc2ccccc12 [Compound 147]	0	0	0	0	100	90	100	100	40	60	90	100	80	40	80	100	80	0	90	90	Plant response rating, Galium [5, 15]: 90; Plant response rating, Blackgrass [6, 15]: 60; Plant response rating, Ryegrass, Italian [7, 17]: 90; Plant response rating, Barnyardgrass [8, 17]: 10; Barnyardgrass plant response rating [8, 20]: 30; Plant response rating, Pigweed [9, 17]: 90; Pigweed plant response rating [9, 20]: 90; Plant response rating, Foxtail, Giant [10, 17]: 30; Foxtail, Giant plant response rating [10, 20]: 10; Plant response rating, Wheat [11, 15]: 20; Plant response rating, Kochia [12, 17]: 80; Kochia plant response rating [12, 20]: 50; Plant response rating, Corn [13, 15]: 0; Plant response rating, Ragweed [14, 17]: 90
CC(=O)Oc1c(C)nn(C)c(=O)c1-c1c(C(F)(F)F)ccc2ccccc12 [Compound 148]	0	0	0	0	90	80	90	100	30	60	90	100	70	50	60	90	90	0	90	80	Plant response rating, Galium [5, 15]: 90; Plant response rating, Blackgrass [6, 15]: 60; Plant response rating, Ryegrass, Italian [7, 17]: 90; Plant response rating, Barnyardgrass [8, 17]: 10; Barnyardgrass plant response rating [8, 20]: 10; Plant response rating, Pigweed [9, 17]: 90; Pigweed plant response rating [9, 20]: 100; Plant response rating, Foxtail, Giant [10, 17]: 30; Foxtail, Giant plant response rating [10, 20]: 20; Plant response rating, Wheat [11, 15]: 20; Plant response rating, Kochia [12, 17]: 80; Kochia plant response rating [12, 20]: 30; Plant response rating, Corn [13, 15]: 0; Plant response rating, Ragweed [14, 17]: 90
C#Cc1ccc2cccc(-c3c(O)c(C)nn(C)c3=O)c2c1 [Compound 150]	0	0	0	0	80	50	90	70	30	10	80	100	30	30	20	70	20	0	30	30	Plant response rating, Galium [5, 15]: 30; Plant response rating, Blackgrass [6, 15]: 0; Plant response rating, Ryegrass, Italian [7, 17]: 40; Plant response rating, Barnyardgrass [8, 17]: 0; Barnyardgrass plant response rating [8, 20]: 0; Plant response rating, Pigweed [9, 17]: 40; Pigweed plant response rating [9, 20]: 80; Plant response rating, Foxtail, Giant [10, 17]: 0; Foxtail, Giant plant response rating [10, 20]: 0; Plant response rating, Wheat [11, 15]: 0; Plant response rating, Kochia [12, 17]: 40; Kochia plant response rating [12, 20]: 0; Plant response rating, Corn [13, 15]: 0; Plant response rating, Ragweed [14, 17]: 0
Cc1ccc2ccccc2c1-c1c(OS(C)(=O)=O)c(Br)nn(C)c1=O [Compound 155]	0	20	50	65	90	70	90	90	80	80	100	100	90	90	50	80	90	20	100	90	Plant response rating, Galium [5, 21]: 90; Plant response rating, Blackgrass [6, 21]: 60; Plant response rating, Ryegrass, Italian [7, 22]: 90; Plant response rating, Ryegrass, Italian [7, 23]: 70; Plant response rating, Barnyardgrass [8, 22]: 30; Plant response rating, Barnyardgrass [8, 23]: 50; Plant response rating, Pigweed [9, 22]: 90; Plant response rating, Pigweed [9, 23]: 100; Plant response rating, Foxtail, Giant [10, 22]: 80; Plant response rating, Foxtail, Giant [10, 23]: 60; Plant response rating, Wheat [11, 21]: 30; Plant response rating, Kochia [12, 22]: 70; Plant response rating, Kochia [12, 23]: 20; Plant response rating, Corn [13, 21]: 0; Plant response rating, Ragweed [14, 22]: 100; Plant response rating, Ragweed [14, 23]: 90
